Measured values as given in patent US20260102383A1, “LPAR1 Inhibitors” (AbbVie Inc., priority 2024, published 2026).

These compounds were tested against T1, human LPAR1 (Homo sapiens, UniProt Q92633) (assay: Arrestin assay (Arrestin Reporter EDG2-bla U2OS), inhibition of LPA-stimulated signal). Settings: TangoEDG2-bla U2OS cells expressing human LPAR1; 0.25 μM LPA; read-out: Arrestin Reporter EDG2-bla U2OS Human Merged IC50.
T1 construct: host or cells: TangoEDG2-bla U2OS cells
T1 sequence (Q92633 whole entry): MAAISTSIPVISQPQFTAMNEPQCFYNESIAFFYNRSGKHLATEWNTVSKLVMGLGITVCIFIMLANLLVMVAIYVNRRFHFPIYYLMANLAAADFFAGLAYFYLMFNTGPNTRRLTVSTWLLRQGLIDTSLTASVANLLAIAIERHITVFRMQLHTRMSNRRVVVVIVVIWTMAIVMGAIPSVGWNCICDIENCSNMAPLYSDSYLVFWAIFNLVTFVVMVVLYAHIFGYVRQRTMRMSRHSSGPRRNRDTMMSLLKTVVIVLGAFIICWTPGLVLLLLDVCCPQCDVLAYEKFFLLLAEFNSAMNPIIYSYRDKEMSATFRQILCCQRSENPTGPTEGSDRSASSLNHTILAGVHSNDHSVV
Format: cell-based
Protocol: The inhibitory activity of compounds 15, 62, 77, 84 and 169 against LPAR1 was measured using an Arrestin assay in U2OS cells expressing human LPAR1.
FreeStyle media was warmed in a 37° C. water bath. Cryo-preserved vial(s) of TangoEDG2-bla U2OS cells were rapidly thawed in a 37° C. water bath. The thawed cells were added to FreeStyle media and cells were pelleted at 300×g for 5 minutes. The supernatant was aspirated, and cells were resuspended in FreeStyle media. Cell density was adjusted to 0.25×10^6 cells/mL. Cells (1×10^4 in 40 μL) were added to each well of Greiner 384 well black cell plate(s). Cell plate(s) were placed in a humidified 37° C./5% CO2 incubator for 18-20 hours. Dilutions of test compound were prepared at 6× final concentration; 12-point, 3-fold dilutions using HH Buffer (1×HBSS plus 20 mM HEPES). The 6× test compound was then added to the cell plate(s) at 10 μL/well. The final concentration ranged from 10 μM to 0.00006 μM. Cell plate(s) were incubated in a humidified 37° C./5% CO2 incubator for 1 hour. During the incubation, 6×LPA was prepared at 1.5 μM in 0.1% BSA HH Buffer. After the 1-hour incubation of test compound with cells, the LPA was added to the cell plate(s) at 10 μL/well (final LPA concentration of 0.25 μM). Cell plate(s) were returned to a humidified 37° C./5% CO2 incubator for 3 hours. The Development solution was made up per the LiveBLAzerFRET B/G kit protocol. The Development solution was added to the cell plate(s) at 10 μL/well. Cell plates were incubated in the dark at room temperature for 2 hours. Plate(s) were read on an Envision Plate Reader (Perkin Elmer) to read fluorescence; excitation at 409 nm with emission at 460 nm and 530 nm. Raw Data for analysis is the ratio of emission at 460 nm divided by emission 530 nm. The formula used to determine % Inhibition is as follows (1−(Raw Data−Low Average)/(High Average−Low Average))*100. Percent Inhibition was plotted to determine IC50 value with GraphPad Prism 9.5.0 software using Variable slope 4-parameter curve fit analysis.
Additional compounds of the present disclosure were synthesized in a manner similar to the compounds described above and understood by a person of ordinary skill in the art. The inhibitory activity of the compounds of the present disclosure against LPAR1 was measured using the above-referenced Arrestin Assay protocol.
An IC50 of 14.2 nM was found for CC(C)c1ccnn1C1(C(=O)Nc2ccc(Cl)cc2OC(F)F)CCN(CC2(C(=O)O)CCC(=O)CC2)CC1 [Compound 27, 1-[[4-[[4-chloro-2-(difluoromethoxy)phenyl]carbamoyl]-4-(5-isopropylpyrazol-1-yl)-1-piperidyl]methyl]-4-oxo-cyclohexanecarboxylic acid] in this work. An IC50 of 4.82 nM was found for COc1ccc([C@H](CN2CCC(C(=O)Nc3ccc(Cl)cc3OC(F)F)(n3nccc3C(C)C)CC2)C(=O)O)cc1 [Compound 28] in this work. An IC50 of 4.75 nM was found for COc1ccc([C@@H](CN2CCC(C(=O)Nc3ccc(Cl)cc3OC(F)F)(n3nccc3C(C)C)CC2)C(=O)O)cc1 [Compound 29, (2S)-3-[4-[[4-chloro-2-(difluoromethoxy)phenyl]carbamoyl]-4-(5-isopropylpyrazol-1-yl)-1-piperidyl]-2-(4-methoxyphenyl) propanoic acid] in this work. An IC50 of 12.6 nM was found for CC(C)c1ccnn1C1(C(=O)Nc2ccc(Cl)cc2OC(F)F)CCN(CC2(C(=O)O)CCCCO2)CC1 (stereo not drawn) [Compound 30, 2-[[4-[[4-chloro-2-(difluoromethoxy)phenyl]carbamoyl]-4-(5-isopropylpyrazol-1-yl)-1-piperidyl]methyl] tetrahydropyran-2-carboxylic acid] in this work. An IC50 of 6.55 nM was found for CC(C)c1ccnn1C1(C(=O)Nc2ccc(Cl)cc2OC(F)F)CCN(CC2(C(=O)O)CC3(CCC3)C2)CC1 [Compound 31, 2-[[4-[[4-chloro-2-(difluoromethoxy)phenyl]carbamoyl]-4-(5-isopropylpyrazol-1-yl)-1-piperidyl]methyl]spiro[3.3] heptane-2-carboxylic acid] in this work. An IC50 of 5.13 nM was found for COc1cccc([C@@H](CN2CCC(C(=O)Nc3ccc(Cl)cc3OC(F)F)(n3nccc3C(C)C)CC2)C(=O)O)c1 [Compound 33, (2S)-3-[4-[[4-chloro-2-(difluoromethoxy)phenyl]carbamoyl]-4-(5-isopropylpyrazol-1-yl)-1-piperidyl]-2-(3-methoxyphenyl)propanoic acid] in this work. An IC50 of 33.3 nM was found for CC(C)c1ccnn1C1(C(=O)Nc2ccc(Cl)cc2OC(F)F)CCN(CC2(C(=O)O)CCC(O)CC2)CC1 (stereo not drawn) [Compound 34, 1-[[4-[[4-chloro-2-(difluoromethoxy)phenyl]carbamoyl]-4-(5-isopropylpyrazol-1-yl)-1-piperidyl]methyl]-4-hydroxy-cyclohexanecarboxylic acid] in this work. An IC50 of 43.6 nM was found for CC1(C)CCc2cnn(C3(C(=O)Nc4ccc(Cl)cc4OC(F)F)CCN(CC4(C(=O)O)CCOCC4)CC3)c21 [Compound 35, 4-[[4-[[4-chloro-2-(difluoromethoxy)phenyl]carbamoyl]-4-(6,6-dimethyl-4,5-dihydrocyclopenta[c]pyrazol-1-yl)-1-piperidyl]methyl]tetrahydropyran-4-carboxylic acid] in this work. An IC50 of 55.3 nM was found for CC(C)c1ccnn1C1(C(=O)Nc2ccc(Cl)cc2OC(F)F)CCN(Cc2cccc(C(=O)O)n2)CC1 [Compound 36, 6-[[4-[[4-chloro-2-(difluoromethoxy)phenyl]carbamoyl]-4-(5-isopropylpyrazol-1-yl)-1-piperidyl]methyl]pyridine-2-carboxylic acid] in this work. An IC50 of 14.6 nM was found for CC(C)c1ccnn1C1(C(=O)Nc2ccc(Cl)cc2OC(F)F)CCN(Cc2nc(C(=O)O)cs2)CC1 [Compound 37, 2-[[4-[[4-chloro-2-(difluoromethoxy)phenyl]carbamoyl]-4-(5-isopropylpyrazol-1-yl)-1-piperidyl]methyl]thiazole-4-carboxylic acid] in this work. An IC50 of 22.5 nM was found for CC(C)c1ccnn1C1(C(=O)Nc2ccc(Cl)cc2OC(F)F)CCN(CC2(C(=O)O)CC3(COC3)C2)CC1 [Compound 40, 6-[[4-[[4-chloro-2-(difluoromethoxy)phenyl]carbamoyl]-4-(5-isopropylpyrazol-1-yl)-1-piperidyl]methyl]-2-oxaspiro[3.3]heptane-6-carboxylic acid] in this work. An IC50 of 22.8 nM was found for CCC(=O)N1CCC(CN2CCC(C(=O)Nc3ccc(Cl)cc3OC(F)F)(n3nccc3C(C)C)CC2)(C(=O)O)CC1 [Compound 41, 4-[[4-[[4-chloro-2-(difluoromethoxy)phenyl]carbamoyl]-4-(5-isopropylpyrazol-1-yl)-1-piperidyl]methyl]-1-propanoyl-piperidine-4-carboxylic acid] in this work. An IC50 of 19.1 nM was found for CC(C)c1ccnn1C1(C(=O)Nc2ccc(Cl)cc2OC(F)F)CCN(CC2(C(=O)O)CCCCC2)CC1 [Compound 42, 1-[[4-[[4-chloro-2-(difluoromethoxy)phenyl]carbamoyl]-4-(5-isopropylpyrazol-1-yl)-1-piperidyl]methyl]cyclohexanecarboxylic acid] in this work. An IC50 of 27.6 nM was found for CC(C)c1ccnn1C1(C(=O)Nc2ccc(Cl)cc2OC(F)F)CCN(CC2(C(=O)O)CCN(C(=O)C3CC3)CC2)CC1 [Compound 43, 4-[[4-[[4-chloro-2-(difluoromethoxy)phenyl]carbamoyl]-4-(5-isopropylpyrazol-1-yl)-1-piperidyl]methyl]-1-(cyclopropanecarbonyl) piperidine-4-carboxylic acid] in this work. An IC50 of 30.5 nM was found for CC(C)c1ccnn1C1(C(=O)Nc2ccc(Cl)cc2OC(F)F)CCN(CC2(C(=O)O)CCN(C(=O)C3CCC3)CC2)CC1 [Compound 44, 4-[[4-[[4-chloro-2-(difluoromethoxy)phenyl]carbamoyl]-4-(5-isopropylpyrazol-1-yl)-1-piperidyl]methyl]-1-(cyclobutanecarbonyl) piperidine-4-carboxylic acid] in this work. An IC50 of 17.6 nM was found for CC(C)c1ccnn1C1(C(=O)Nc2ccc(Cl)cc2OC(F)F)CCN(CC2(C(=O)O)CCC2)CC1 [Compound 45, 1-[[4-[[4-chloro-2-(difluoromethoxy)phenyl]carbamoyl]-4-(5-isopropylpyrazol-1-yl)-1-piperidyl]methyl]cyclobutanecarboxylic acid] in this work. An IC50 of 62.7 nM was found for CC(C)c1ccnn1C1(C(=O)Nc2ccc(Cl)cc2OC(F)F)CCN(C2CC(C(=O)O)C2)CC1 (stereo not drawn) [Compound 46, 3-[4-[[4-chloro-2-(difluoromethoxy)phenyl]carbamoyl]-4-(5-isopropylpyrazol-1-yl)-1-piperidyl] cyclobutanecarboxylic acid] in this work. An IC50 of 14.8 nM was found for CC(C)c1ccnn1C1(C(=O)Nc2ccc(Cl)cc2OC(F)F)CCN(CC2(C(=O)O)CCN(C(=O)CC3CCCC3)CC2)CC1 [Compound 47, 4-[[4-[[4-chloro-2-(difluoromethoxy)phenyl]carbamoyl]-4(5-isopropylpyrazol-1-yl)-1-piperidyl]methyl]-1-(2-cyclopentylacetyl) piperidine-4-carboxylic acid] in this work. An IC50 of 44 nM was found for CC(C)c1ccnn1C1(C(=O)Nc2ccc(Cl)cc2OC(F)F)CCN(CC2(C(=O)O)CCN(C(=O)CC3CC3)CC2)CC1 [Compound 48] in this work. An IC50 of 73.2 nM was found for CC(C)c1ccnn1C1(C(=O)Nc2ccc(Cl)cc2OC(F)F)CCN(CC2(CC(=O)O)CC2)CC1 [Compound 49, 2-[1-[[4-[[4-chloro-2-(difluoromethoxy)phenyl]carbamoyl]-4-(5-isopropylpyrazol-1-yl)-1-piperidyl]methyl]cyclopropyl]acetic acid] in this work. An IC50 of 64.1 nM was found for COc1ccc(C(C)(CN2CCC(C(=O)Nc3ccc(Cl)cc3OC(F)F)(n3nccc3C(C)C)CC2)C(=O)O)cc1 (stereo not drawn) [Compound 50, 3-[4-[[4-chloro-2-(difluoromethoxy)phenyl]carbamoyl]-4-(5-isopropylpyrazol-1-yl)-1-piperidyl]-2-(4-methoxyphenyl)-2-methyl-propanoic acid] in this work.
